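Following 48 hours of exposure in 96-well plates, responses at five concentrations were used to interpolate endpoints linearly. GI50 marks 50% less growth. TGI is the concentration that stops growth completely.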
Key:
Test in all cases: NCI tumour cell line growth inhibition, 48 h
786-0 renal = system: 786-0 renal
A549 NSCLC = system: A549 NSCLC
ACHN renal = system: ACHN renal
BT-549 breast = system: BT-549 breast
CAKI-1 renal = system: CAKI-1 renal
CCRF-CEM leukemia = system: CCRF-CEM leukemia
COLO 205 colon = system: COLO 205 colon
DU-145 prostate = system: DU-145 prostate
EKVX NSCLC = system: EKVX NSCLC
HCC-2998 colon = system: HCC-2998 colon
HCT-116 colon = system: HCT-116 colon
HCT-15 colon = system: HCT-15 colon
HL-60(TB) leukemia = system: HL-60(TB) leukemia
HOP-62 NSCLC = system: HOP-62 NSCLC
HOP-92 NSCLC = system: HOP-92 NSCLC
HS 578T breast = system: HS 578T breast
HT29 colon = system: HT29 colon
IGROV1 ovarian = system: IGROV1 ovarian
K-562 leukemia = system: K-562 leukemia
KM12 colon = system: KM12 colon
LOX IMVI melanoma = system: LOX IMVI melanoma
M14 melanoma = system: M14 melanoma
MCF7 breast = system: MCF7 breast
MDA-MB-231 breast = system: MDA-MB-231 breast
MDA-MB-435 = system: MDA-MB-435
MOLT-4 leukemia = system: MOLT-4 leukemia
NCI-H226 lung = system: NCI-H226 lung
NCI-H23 lung = system: NCI-H23 lung
NCI-H460 lung = system: NCI-H460 lung
NCI-H522 lung = system: NCI-H522 lung
NCI/ADR-RES ovarian = system: NCI/ADR-RES ovarian
OVCAR-3 ovarian = system: OVCAR-3 ovarian
OVCAR-4 ovarian = system: OVCAR-4 ovarian
OVCAR-5 ovarian = system: OVCAR-5 ovarian
OVCAR-8 ovarian = system: OVCAR-8 ovarian
PC-3 prostate = system: PC-3 prostate
RPMI-8226 leukemia = system: RPMI-8226 leukemia
RXF 393 renal = system: RXF 393 renal
SF-268 CNS = system: SF-268 CNS
SF-295 CNS = system: SF-295 CNS
SF-539 CNS = system: SF-539 CNS
SK-MEL-2 melanoma = system: SK-MEL-2 melanoma
SK-MEL-5 melanoma = system: SK-MEL-5 melanoma
SK-OV-3 ovarian = system: SK-OV-3 ovarian
SN12C renal = system: SN12C renal
SNB-19 CNS = system: SNB-19 CNS
SW-620 colon = system: SW-620 colon
T-47D breast = system: T-47D breast
TK-10 renal = system: TK-10 renal
U251 CNS = system: U251 CNS
UACC-257 melanoma = system: UACC-257 melanoma
UACC-62 melanoma = system: UACC-62 melanoma
UO-31 renal = system: UO-31 renal
A498 renal = system: A498 renal
SK-MEL-28 melanoma = system: SK-MEL-28 melanoma
SNB-75 CNS = system: SNB-75 CNS

Work on `C/C(O)=C(/C=N/C(=S)Nc1ccc(S(N)(=O)=O)cc1)C(=O)Nc1ccccc1C` yielded a TGI (786-0 renal) greater than 100 µM, a TGI (A549 NSCLC) greater than 100 µM and a TGI (ACHN renal) greater than 100 µM. The TGI (BT-549 breast) was greater than 100 µM, the TGI (CAKI-1 renal) was greater than 100 µM and the TGI (CCRF-CEM leukemia) was 65.9 µM. For the same compound, the TGI (COLO 205 colon) was greater than 100 µM, the TGI (DU-145 prostate) was greater than 100 µM and the TGI (EKVX NSCLC) was greater than 100 µM. For the same compound, the TGI (HCC-2998 colon) was greater than 100 µM, the TGI (HCT-116 colon) was greater than 100 µM and the TGI (HCT-15 colon) was greater than 100 µM. The TGI (HL-60(TB) leukemia) was 42.8 µM, the TGI (HOP-62 NSCLC) was greater than 100 µM and the TGI (HOP-92 NSCLC) was greater than 100 µM. For the same compound, the TGI (HS 578T breast) was greater than 100 µM, the TGI (HT29 colon) was greater than 100 µM and the TGI (IGROV1 ovarian) was greater than 100 µM. For the same compound, the TGI (K-562 leukemia) was greater than 100 µM, the TGI (KM12 colon) was greater than 100 µM and the TGI (LOX IMVI melanoma) was 48.8 µM. It also gave a TGI (M14 melanoma) greater than 100 µM, a TGI (MCF7 breast) greater than 100 µM and a TGI (MDA-MB-231 breast) greater than 100 µM. The TGI (MDA-MB-435) was greater than 100 µM, the TGI (MOLT-4 leukemia) was greater than 100 µM and the TGI (NCI-H226 lung) was greater than 100 µM. The TGI (NCI-H23 lung) was greater than 100 µM, the TGI (NCI-H460 lung) was greater than 100 µM and the TGI (NCI-H522 lung) was greater than 100 µM. The TGI (NCI/ADR-RES ovarian) was greater than 100 µM, the TGI (OVCAR-3 ovarian) was greater than 100 µM and the TGI (OVCAR-4 ovarian) was greater than 100 µM. The TGI (OVCAR-5 ovarian) was greater than 100 µM, the TGI (OVCAR-8 ovarian) was greater than 100 µM and the TGI (PC-3 prostate) was greater than 100 µM. For the same compound, the TGI (RPMI-8226 leukemia) was 97.3 µM, the TGI (RXF 393 renal) was greater than 100 µM and the TGI (SF-268 CNS) was greater than 100 µM. The TGI (SF-295 CNS) was greater than 100 µM, the TGI (SF-539 CNS) was greater than 100 µM and the TGI (SK-MEL-2 melanoma) was greater than 100 µM. For the same compound, the TGI (SK-MEL-5 melanoma) was greater than 100 µM, the TGI (SK-OV-3 ovarian) was greater than 100 µM and the TGI (SN12C renal) was greater than 100 µM. For the same compound, the TGI (SNB-19 CNS) was greater than 100 µM, the TGI (SW-620 colon) was greater than 100 µM and the TGI (T-47D breast) was greater than 100 µM. It also gave a TGI (TK-10 renal) greater than 100 µM, a TGI (U251 CNS) greater than 100 µM and a TGI (UACC-257 melanoma) greater than 100 µM. The TGI (UACC-62 melanoma) was greater than 100 µM and the TGI (UO-31 renal) was greater than 100 µM.

Compound `COc1ccc2c(CN3CCCC[C@H]3C(=O)O)cc3cc4c(cc3c2c1)OCO4` has a GI50 (786-0 renal) of 6.71 µM, a TGI (786-0 renal) greater than 100 µM and a GI50 (A498 renal) of 1.55 µM. For the same compound, the TGI (A498 renal) was 3.06 µM, the GI50 (A549 NSCLC) was 1.1 µM and the TGI (A549 NSCLC) was 4.25 µM. The GI50 (ACHN renal) was 0.46 µM, the TGI (ACHN renal) was 2.43 µM and the GI50 (BT-549 breast) was 2.6 µM. For the same compound, the TGI (BT-549 breast) was 6.6 µM, the GI50 (CAKI-1 renal) was 0.747 µM and the TGI (CAKI-1 renal) was 3.37 µM. It also gave a GI50 (CCRF-CEM leukemia) of 2.94 µM, a TGI (CCRF-CEM leukemia) of 13.5 µM and a GI50 (COLO 205 colon) of 0.494 µM. It also gave a TGI (COLO 205 colon) of 2.88 µM, a GI50 (DU-145 prostate) of 5.72 µM and a TGI (DU-145 prostate) of 24.7 µM. It also gave a GI50 (EKVX NSCLC) of 3 µM, a TGI (EKVX NSCLC) of 6.77 µM and a GI50 (HCC-2998 colon) of 3.56 µM. For the same compound, the TGI (HCC-2998 colon) was greater than 100 µM, the GI50 (HCT-15 colon) was 1.4 µM and the TGI (HCT-15 colon) was 12.7 µM. The GI50 (HOP-62 NSCLC) was 4.33 µM, the TGI (HOP-62 NSCLC) was greater than 100 µM and the GI50 (HOP-92 NSCLC) was 1.86 µM. The TGI (HOP-92 NSCLC) was 5.19 µM, the GI50 (HS 578T breast) was 1.53 µM and the TGI (HS 578T breast) was 4.4 µM. The GI50 (HT29 colon) was 0.374 µM, the TGI (HT29 colon) was 1.85 µM and the GI50 (K-562 leukemia) was 1.5 µM. It also gave a TGI (K-562 leukemia) of 11.1 µM, a GI50 (KM12 colon) of 3.69 µM and a TGI (KM12 colon) of 52.5 µM. For the same compound, the GI50 (LOX IMVI melanoma) was 1.37 µM, the TGI (LOX IMVI melanoma) was 3.15 µM and the GI50 (M14 melanoma) was 3.72 µM. For the same compound, the TGI (M14 melanoma) was 10.5 µM, the GI50 (MCF7 breast) was 0.366 µM and the TGI (MCF7 breast) was 2.8 µM. For the same compound, the GI50 (MDA-MB-231 breast) was 0.799 µM, the TGI (MDA-MB-231 breast) was 3.59 µM and the GI50 (MDA-MB-435) was 1.05 µM. It also gave a TGI (MDA-MB-435) of 4.09 µM, a GI50 (MOLT-4 leukemia) of 0.278 µM and a TGI (MOLT-4 leukemia) of 2.3 µM. The GI50 (NCI-H226 lung) was 1.42 µM, the TGI (NCI-H226 lung) was 3.13 µM and the GI50 (NCI-H23 lung) was 3.25 µM. The TGI (NCI-H23 lung) was greater than 100 µM, the GI50 (NCI-H460 lung) was 0.359 µM and the TGI (NCI-H460 lung) was 2.23 µM. It also gave a GI50 (NCI/ADR-RES ovarian) of 7.11 µM, a TGI (NCI/ADR-RES ovarian) of 65.7 µM and a GI50 (OVCAR-3 ovarian) of 0.688 µM. For the same compound, the TGI (OVCAR-3 ovarian) was 3.41 µM, the GI50 (OVCAR-5 ovarian) was 6.17 µM and the TGI (OVCAR-5 ovarian) was 44.5 µM. It also gave a GI50 (OVCAR-8 ovarian) of 0.457 µM, a TGI (OVCAR-8 ovarian) of 11.7 µM and a GI50 (PC-3 prostate) of 2.53 µM. It also gave a TGI (PC-3 prostate) of 7.14 µM, a GI50 (RPMI-8226 leukemia) of 2.57 µM and a TGI (RPMI-8226 leukemia) of 7.24 µM. For the same compound, the GI50 (RXF 393 renal) was 0.414 µM, the TGI (RXF 393 renal) was 2.03 µM and the GI50 (SF-268 CNS) was 0.175 µM. The TGI (SF-268 CNS) was 1.39 µM, the GI50 (SF-295 CNS) was 0.622 µM and the TGI (SF-295 CNS) was 3.53 µM. For the same compound, the GI50 (SF-539 CNS) was 4.54 µM, the TGI (SF-539 CNS) was 16.2 µM and the GI50 (SK-MEL-28 melanoma) was 0.7 µM. It also gave a TGI (SK-MEL-28 melanoma) of 2.33 µM, a GI50 (SK-MEL-5 melanoma) of 1.25 µM and a TGI (SK-MEL-5 melanoma) of 2.5 µM. The GI50 (SK-OV-3 ovarian) was 3.25 µM, the TGI (SK-OV-3 ovarian) was 23.1 µM and the GI50 (SN12C renal) was 1 µM. For the same compound, the TGI (SN12C renal) was 4.31 µM, the GI50 (SNB-19 CNS) was 1.59 µM and the TGI (SNB-19 CNS) was 5.74 µM. The GI50 (SNB-75 CNS) was 0.397 µM, the TGI (SNB-75 CNS) was 2.28 µM and the GI50 (SW-620 colon) was 0.37 µM. It also gave a TGI (SW-620 colon) of 1.79 µM, a GI50 (T-47D breast) of 2.05 µM and a TGI (T-47D breast) of 8.04 µM. The GI50 (TK-10 renal) was 5.47 µM, the TGI (TK-10 renal) was 60.2 µM and the GI50 (U251 CNS) was 1.96 µM. It also gave a TGI (U251 CNS) of 5.4 µM, a GI50 (UACC-62 melanoma) of 1.02 µM and a TGI (UACC-62 melanoma) of 2.34 µM.

— PubChem BioAssay (NCI)
